Results taken from PubChem BioAssay (NCI).
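GI50 is the concentration that inhibits growth by half. TGI denotes the concentration required for complete inhibition of growth.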

Experiments:
Assay in all cases: NCI anticancer screen, dose series, 384-well format
[1] = tested on: T-47D breast
[2] = tested on: HOP-62 NSCLC
[3] = tested on: ACHN renal
[4] = tested on: SF-539 CNS
[5] = tested on: HOP-92 NSCLC
[6] = tested on: SF-295 CNS
[7] = tested on: SN12C renal
[8] = tested on: U251 glioblastoma
[9] = tested on: A549 NSCLC
[10] = tested on: DU-145 prostate
[11] = tested on: PC-3 prostate
[12] = tested on: SW-620 colon
[13] = tested on: SNB-19 CNS
[14] = tested on: M14 melanoma
[15] = tested on: MOLT-4 leukemia
[16] = tested on: UACC-62 melanoma
[17] = tested on: SK-OV-3 ovarian
[18] = tested on: SK-MEL-2 melanoma
[19] = tested on: LOX IMVI melanoma
[20] = tested on: K-562 leukemia
[21] = tested on: RXF 393 renal
[22] = tested on: NCI/ADR-RES ovarian
[23] = tested on: OVCAR-3 ovarian
[24] = tested on: MCF7 breast
[25] = tested on: SR leukemia
[26] = tested on: RPMI-8226 leukemia
[27] = tested on: CCRF-CEM leukemia
[28] = tested on: BT-549 breast
[29] = tested on: NCI-H23 lung
[30] = tested on: MDA-MB-435 melanoma
[31] = tested on: SK-MEL-28 melanoma
[32] = tested on: HL-60(TB) leukemia
[33] = tested on: NCI-H522 lung
[34] = tested on: IGROV1 ovarian
[35] = tested on: COLO 205 colon
[36] = tested on: HCT-15 colon
[37] = tested on: 786-0 renal
[38] = tested on: SK-MEL-5 melanoma
[39] = tested on: UO-31 renal
[40] = tested on: HCT-116 colon
[41] = tested on: MDA-MB-231 breast
[42] = tested on: OVCAR-4 ovarian
[43] = tested on: CAKI-1 renal
[44] = tested on: A498 renal
[45] = tested on: OVCAR-5 ovarian
[46] = tested on: NCI-H322M lung
[47] = tested on: UACC-257 melanoma
[48] = tested on: HT29 colon
[49] = tested on: NCI-H460 NSCLC
[50] = tested on: MDA-MB-468 breast
[51] = tested on: OVCAR-8 ovarian
[52] = tested on: MALME-3M melanoma
[53] = tested on: KM12 colon
[54] = tested on: NCI-H226 lung
[55] = tested on: SF-268 CNS
[56] = tested on: HCC-2998 colon
[57] = tested on: TK-10 renal

COc1ccc([C@H](CC(=O)O)N2CCN(CCCc3ccc4c(n3)NCCC4)C2=O)cn1
GI50 [1]: 14.2 µM
TGI [1]: 51 µM
GI50 [2]: 1.24 µM
TGI [2]: 21.7 µM
GI50 [3]: 0.516 µM
TGI [3]: 52.3 µM
GI50 [4]: 10.1 µM
TGI [4]: 49.2 µM
GI50 [5]: 0.166 µM
TGI [5]: 0.933 µM
GI50 [6]: 41.1 µM
TGI [6]: > 100 µM
GI50 [7]: 36.7 µM
TGI [7]: > 100 µM
GI50 [8]: 0.561 µM
TGI [8]: > 100 µM
GI50 [9]: 7.2 µM
TGI [9]: > 100 µM
GI50 [10]: 1.13 µM
TGI [10]: > 100 µM
GI50 [11]: 29.1 µM
TGI [11]: > 100 µM
GI50 [12]: 88.2 µM
TGI [12]: > 100 µM
GI50 [13]: 0.302 µM
TGI [13]: > 100 µM
GI50 [14]: 40.6 µM
TGI [14]: > 100 µM
GI50 [15]: 21.5 µM
TGI [15]: 66.3 µM
GI50 [16]: 38 µM
TGI [16]: > 100 µM
GI50 [17]: 3.35 µM
TGI [17]: 65.4 µM
GI50 [18]: 0.0476 µM
TGI [18]: > 100 µM
GI50 [19]: 21.1 µM
TGI [19]: 67.1 µM
GI50 [20]: 65.8 µM
TGI [20]: > 100 µM
TGI [21]: 0.0412 µM
GI50 [22]: > 100 µM
TGI [22]: > 100 µM
GI50 [23]: 13.3 µM
TGI [23]: > 100 µM
GI50 [24]: 30.6 µM
TGI [24]: > 100 µM
GI50 [25]: 31.5 µM
TGI [25]: 86.5 µM
GI50 [26]: 7.91 µM
TGI [26]: 21.1 µM
GI50 [27]: 34.7 µM
TGI [27]: > 100 µM
GI50 [28]: 0.162 µM
TGI [28]: 0.564 µM
GI50 [29]: > 100 µM
TGI [29]: > 100 µM
GI50 [30]: 96.3 µM
TGI [30]: > 100 µM
GI50 [31]: 44.5 µM
TGI [31]: > 100 µM
GI50 [32]: > 100 µM
TGI [32]: > 100 µM
GI50 [33]: 0.151 µM
TGI [33]: 14.6 µM
GI50 [34]: 0.914 µM
TGI [34]: 15.9 µM
GI50 [35]: 36.8 µM
TGI [35]: > 100 µM
GI50 [36]: 44.7 µM
TGI [36]: > 100 µM
GI50 [37]: 0.495 µM
TGI [37]: 24.9 µM
GI50 [38]: 83.8 µM
TGI [38]: > 100 µM
GI50 [39]: 1.29 µM
TGI [39]: 8.86 µM
GI50 [40]: 35.3 µM
TGI [40]: > 100 µM
GI50 [41]: 1.73 µM
TGI [41]: 78.3 µM
GI50 [42]: 0.0228 µM
TGI [42]: 15.2 µM
GI50 [43]: 0.023 µM
TGI [43]: 0.132 µM
GI50 [44]: 0.0192 µM
TGI [44]: 1.04 µM
GI50 [45]: 0.0927 µM
TGI [45]: 62.9 µM
GI50 [46]: 52.6 µM
TGI [46]: > 100 µM
GI50 [47]: 44.7 µM
TGI [47]: > 100 µM
GI50 [48]: 32.5 µM
TGI [48]: > 100 µM
GI50 [49]: 20.3 µM
TGI [49]: > 100 µM
GI50 [50]: 23.3 µM
TGI [50]: 68.8 µM
GI50 [51]: 11.7 µM
TGI [51]: > 100 µM
GI50 [52]: 25.4 µM
TGI [52]: > 100 µM
GI50 [53]: 55.7 µM
TGI [53]: > 100 µM
GI50 [54]: 1.61 µM
TGI [54]: 42.6 µM
GI50 [55]: 0.336 µM
TGI [55]: 28.1 µM
GI50 [56]: 42.9 µM
TGI [56]: > 100 µM
GI50 [57]: 0.0253 µM
TGI [57]: 0.13 µM
